Values quoted from earlier work, collected in patent US20230165842A1, “NEW USES” (priority 2020, published 2023).
Like-named read-outs stand apart in the source and are kept apart here.

Tests used:
[1] = test system: Vero-E6 cells; details: read-out: CC50 in
[2] = test system: SARS-CoV-2; details: Vero-E6
[3] = test system: SARS-CoV-2; details: with increased concentrations; vs DMSO treated group
[4] = target: ACE2 (Homo sapiens, UniProt Q9BYF1); details: cell membrane chromatography and surface plasmon resonance
[5] = test system: SARS-CoV-2 Spike pseudotyped virus; details: ACE2h HEK293T cells; Control = 1
[6] = test system: Calu-3 cells
[7] = test system: SARS-CoV-2; details: Calu-3
[8] = test system: SARS-CoV-2; details: Vero E6; for IC50: 2 h pre-treatment, 24 h
[9] = test system: SARS-CoV-2; details: Yang et al., 2020
[10] = test system: Vero E6 cells
[11] = test system: SARS-CoV-2; details: virucidal activity; chlorphenamine maleate
[12] = test system: human coronavirus (HCoV)-229E; details: MRC5 cells
[13] = test system: SARS-CoV-2; details: Vero E6; with reduced cytotoxicity
[14] = test system: IL1β; details: curcumin group
[15] = test system: IL6; details: curcumin group
[16] = test system: IL-18 and TNF-α; details: before and after intervention
[17] = test system: SARS-CoV-2; details: 10 μM; post-infection treatment; Vero E6; MOI 1
[18] = test system: critically ill patients with COVID-19; details: compared to placebo or usual care
[19] = test system: SARS-CoV-2; details: treated 24 hours prior to infection; read-out: IC50 in Calu-3
[20] = test system: SARS-CoV-2; details: treated 24 hours prior to infection; read-out: IC50 in Vero
[21] = test system: SARS-CoV-2; details: pre-treated Vero-E6; MOI 0.01; 24 hours; p<0.001 vs DMSO
[22] = test system: SARS-CoV-2; details: pre-treated A549^AcE2; MOI 0.01; 24 hours; p<0.001 vs DMSO
[23] = test system: HCoV-OC43; details: Vero C1008; dose-dependent
[24] = test system: SARS-CoV-2/USA/WI1/2020
[25] = test system: Vero C1008
[26] = test system: SARS-CoV-2-Wuhan-Hu-1; details: Vero C1008

Sequence of ACE2 (Q9BYF1 18-805): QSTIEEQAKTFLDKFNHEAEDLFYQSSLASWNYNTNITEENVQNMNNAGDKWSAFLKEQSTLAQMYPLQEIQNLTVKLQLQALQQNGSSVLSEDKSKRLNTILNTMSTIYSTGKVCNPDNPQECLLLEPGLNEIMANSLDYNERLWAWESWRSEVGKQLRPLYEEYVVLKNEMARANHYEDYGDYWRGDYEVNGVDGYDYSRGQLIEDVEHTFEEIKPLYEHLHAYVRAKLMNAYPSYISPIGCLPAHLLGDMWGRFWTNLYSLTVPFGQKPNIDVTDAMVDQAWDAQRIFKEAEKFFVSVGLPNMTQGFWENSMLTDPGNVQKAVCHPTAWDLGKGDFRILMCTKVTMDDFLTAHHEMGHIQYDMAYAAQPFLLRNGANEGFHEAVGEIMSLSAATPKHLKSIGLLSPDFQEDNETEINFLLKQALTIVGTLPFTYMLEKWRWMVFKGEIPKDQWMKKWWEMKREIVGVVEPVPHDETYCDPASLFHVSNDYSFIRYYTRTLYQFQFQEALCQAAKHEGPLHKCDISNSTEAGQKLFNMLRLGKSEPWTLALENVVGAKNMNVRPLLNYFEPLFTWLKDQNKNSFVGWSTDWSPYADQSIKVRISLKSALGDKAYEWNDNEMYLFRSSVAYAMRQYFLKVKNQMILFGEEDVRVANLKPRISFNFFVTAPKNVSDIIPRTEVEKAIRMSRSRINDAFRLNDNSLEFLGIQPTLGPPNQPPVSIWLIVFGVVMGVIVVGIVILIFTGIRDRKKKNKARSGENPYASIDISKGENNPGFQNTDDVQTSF

## Nc1ccn([C@@H]2O[C@H](CO)[C@@H](O)C2(F)F)c(=O)n1 [Compound 155, gemcitabine]
[1]
  CC50: > 40 µM
[2]
  SI: 33
[2]; MOI 0.005
  EC50: 1.24 µM
[3]
  positive cells in IFA: significantly decreased positive cells

## CCOC(=O)N1CCC(=C2c3ccc(Cl)cc3CCc3cccnc32)CC1 [Compound 42, loratadine]
[4]
  binding to ACE2: could bind to ACE2
[5]
  pseudotype entry (mean): 0.7

## CCOC(=O)C1=C(C)NC(C)=C(C(=O)OC)C1c1cccc(Cl)c1Cl (stereo not drawn) [Compound 30, felodipine]
[6]
  CC50: 123 µM
[7]
  SI = CC50/EC50: 9784.86

## CC(CN1c2ccccc2Sc2ccccc21)N(C)C (stereo not drawn) [Compound 144, promethazine]
[8]; MOI 0.004
  Selectivity Index (SI): 4.62
  IC50: 9.21 µM
[8]; MOI 0.01
  Selectivity Index (SI): 4.08
  IC50: 10.4 µM
[9]
  SARS-CoV-2 entry inhibition: SARS-CoV-2 entry inhibitor
[10]; Vero E6, listed as MOI 0.004
  CC50: > 42.6 µM
[10]; Vero E6, listed as MOI 0.01
  CC50: > 42.6 µM

## CN(C)CCC(c1ccc(Cl)cc1)c1ccccn1 (stereo not drawn) [Compound 16, chlorphenamine]
[8]; MOI 0.004
  Selectivity Index (SI): 3.78
  IC50: 3.14 µM
[8]; MOI 0.01
  Selectivity Index (SI): 2.94
  IC50: 4.03 µM
[11]
  reduction in the viral load: 99.7%
[10]
  CC50: 11.9 µM

## Oc1ccc(C=Cc2cc(O)cc(O)c2)cc1 [Compound 192, resveratrol]
[12]
  EC50: 4.6 µM
  reduction of the viral titer: 80%
[13]
  viral titer on SARS-CoV-2: showed a reduction of the viral titer

## COc1cc(/C=C/C(=O)CC(=O)/C=C/c2ccc(O)c(OC)c2)ccc1O [Compound 21, curcumin]
[14]; 160 mg daily for 14 days
  IL1β mRNA expression level, after: 0.56
[14]; before intervention
  IL1β mRNA expression level, before: 1.01
[15]; 160 mg daily for 14 days
  IL6 mRNA expression level, after: 0.58
[15]; before intervention
  IL6 mRNA expression level, before: 0.98
[16]
  expression level of IL-18 and TNF-α: no statistically significant differences

## calcitriol [Compound 142]
[17]
  reduction of SARS-CoV-2 titre: 1.3 log 10

## C[C@]12CCC(=O)C=C1CC[C@@H]1[C@@H]2[C@@H](O)C[C@@]2(C)[C@H]1CC[C@]2(O)C(=O)CO [Compound 32, hydrocortisone]
[18]
  odds ratio (OR) of mortality: 0.69 (95% CI, 0.43-1.12; P = .13)

## CCCCCC(=O)O[C@]1(C(C)=O)CC[C@H]2[C@@H]3CCC4=CC(=O)CC[C@]4(C)[C@H]3CC[C@@]21C [Compound 2, 17-hydroxyprogesterone-caproate]
[19]
  IC50: 3.87 µM
[20]
  IC50: 6.3 µM

## CN1CCN(CCCN2c3ccccc3Sc3ccc(C(F)(F)F)cc32)CC1 [Compound 73, trifluoperazine]
[21]
  SARS-COV-2 replication (vRNA levels): successfully blocked
[22]
  SARS-COV-2 replication (vRNA levels): successfully blocked

## C[S+]([O-])CCCCN=C=S (stereo not drawn) [Compound 139, sulforaphane]
[23]
  HCoV-OC43 virus-associated cell death: effectively inhibited
[24]; SFN daily oral gavage from one day prior to inoculation, vs untreated infected controls, P<0.0001
  protein concentration in the bronchoalveolar lavage (BAL): significantly lower
[24]; vs untreated controls, P=0.04
  reduction in viral titers, alveolar fluid: 1.15 log
[24]; vs untreated controls, normalized to PoI2Ra
  reduction in viral lung titers: 1.5 log
[25]
  cytotoxic dose TD50: 73 to 89 µM
[26]; dose-dependent
  SARS-CoV-2-Wuhan-Hu-1 virus-associated cell death: effectively inhibited
[26]; drug 1-2 hours before inoculation
  IC50: 12 µM
